Laboratory results taken from ChEMBL document CHEMBL4421728, “Bach1 Inhibitors in Combination with Nrf2 Activators and Pharmaceutical Compositions Thereof” (2017).

How the values were obtained:
[1] = target: T1, Transcription regulator protein BACH1 (Homo sapiens) (UniProt O14867); assay: Inhibition of Bach1 in normal human lung fibroblasts assessed as induction of HMOX protein expression at 0.156 uM in presence of 10 uM Nrf2 activator DMF incubated for 16 to 18 hrs by immunostaining relative to control
T1 sequence (whole entry): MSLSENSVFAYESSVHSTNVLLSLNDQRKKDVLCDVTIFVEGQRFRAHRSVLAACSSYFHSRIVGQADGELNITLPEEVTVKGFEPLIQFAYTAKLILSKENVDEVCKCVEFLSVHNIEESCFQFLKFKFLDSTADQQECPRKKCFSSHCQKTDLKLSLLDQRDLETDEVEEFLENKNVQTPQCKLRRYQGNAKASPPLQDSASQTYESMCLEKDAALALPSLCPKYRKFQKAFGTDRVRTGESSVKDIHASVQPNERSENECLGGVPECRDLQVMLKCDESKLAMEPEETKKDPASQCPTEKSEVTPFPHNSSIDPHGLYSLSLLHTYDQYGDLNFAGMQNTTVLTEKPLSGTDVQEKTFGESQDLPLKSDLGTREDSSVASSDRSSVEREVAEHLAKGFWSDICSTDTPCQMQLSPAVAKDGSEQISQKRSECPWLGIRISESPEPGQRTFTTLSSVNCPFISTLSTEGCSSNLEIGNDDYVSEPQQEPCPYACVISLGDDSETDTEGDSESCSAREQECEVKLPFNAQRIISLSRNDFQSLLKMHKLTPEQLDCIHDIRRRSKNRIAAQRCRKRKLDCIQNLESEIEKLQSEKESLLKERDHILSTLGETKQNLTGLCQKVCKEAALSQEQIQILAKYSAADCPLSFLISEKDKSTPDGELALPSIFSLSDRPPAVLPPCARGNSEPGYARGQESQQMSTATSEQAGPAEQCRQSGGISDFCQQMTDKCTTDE

[2] = target: T1, Transcription regulator protein BACH1 (Homo sapiens); assay: Inhibition of Bach1 in normal human lung fibroblasts assessed as induction of HMOX protein expression at 0.019 uM in presence of 0.03 uM Nrf2 activator DMF incubated for 16 to 18 hrs by immunostaining relative to control
[3] = target: T1, Transcription regulator protein BACH1 (Homo sapiens); assay: Inhibition of Bach1 in normal human lung fibroblasts assessed as induction of HMOX protein expression by measuring HMOX positive cells level at 0.078 uM in presence of 30 uM Nrf2 activator DMF incubated for 16 to 18 hrs by immunostaining relative to control DMSO; design: scale not given: the % may be the effect or the level left
[4] = target: T1, Transcription regulator protein BACH1 (Homo sapiens); assay: Inhibition of Bach1 in normal human lung fibroblasts assessed as induction of HMOX protein expression at 0.156 uM in presence of 0.3 uM Nrf2 activator DMF incubated for 16 to 18 hrs by immunostaining relative to control
[5] = target: T1, Transcription regulator protein BACH1 (Homo sapiens); assay: Inhibition of Bach1 in normal human lung fibroblasts assessed as induction of HMOX protein expression by measuring HMOX positive cells level at 0.156 uM in presence of 1 uM Nrf2 activator DMF incubated for 16 to 18 hrs by immunostaining relative to control DMSO; design: scale not given: the % may be the effect or the level left
[6] = target: T1, Transcription regulator protein BACH1 (Homo sapiens); assay: Inhibition of Bach1 in normal human lung fibroblasts assessed as induction of HMOX protein expression at 0.078 uM in presence of 1 uM Nrf2 activator DMF incubated for 16 to 18 hrs by immunostaining relative to control
[7] = target: T1, Transcription regulator protein BACH1 (Homo sapiens); assay: Inhibition of Bach1 in normal human lung fibroblasts assessed as induction of HMOX protein expression by measuring HMOX positive cells level at 0.156 uM in presence of 3 uM Nrf2 activator DMF incubated for 16 to 18 hrs by immunostaining relative to control DMSO; design: scale not given: the % may be the effect or the level left
[8] = target: T1, Transcription regulator protein BACH1 (Homo sapiens); assay: Inhibition of Bach1 in normal human lung fibroblasts assessed as induction of HMOX protein expression by measuring HMOX positive cells level at 0.156 uM in presence of 0.1 uM Nrf2 activator DMF incubated for 16 to 18 hrs by immunostaining relative to control DMSO; design: scale not given: the % may be the effect or the level left
[9] = target: T1, Transcription regulator protein BACH1 (Homo sapiens); assay: Inhibition of Bach1 in normal human lung fibroblasts assessed as induction of HMOX protein expression by measuring HMOX positive cells level at 0.039 uM in presence of 0.3 uM Nrf2 activator DMF incubated for 16 to 18 hrs by immunostaining relative to control DMSO; design: scale not given: the % may be the effect or the level left
[10] = target: T1, Transcription regulator protein BACH1 (Homo sapiens); assay: Inhibition of Bach1 in normal human lung fibroblasts assessed as induction of HMOX protein expression by measuring HMOX positive cells level at 0.078 uM in presence of 0.3 uM Nrf2 activator DMF incubated for 16 to 18 hrs by immunostaining relative to control DMSO; design: scale not given: the % may be the effect or the level left
[11] = target: T1, Transcription regulator protein BACH1 (Homo sapiens); assay: Inhibition of Bach1 in normal human lung fibroblasts assessed as induction of HMOX protein expression at 0.019 uM in presence of 3 uM Nrf2 activator DMF incubated for 16 to 18 hrs by immunostaining relative to control
[12] = target: T1, Transcription regulator protein BACH1 (Homo sapiens); assay: Inhibition of Bach1 in normal human lung fibroblasts assessed as induction of HMOX protein expression at 0.156 uM in presence of 3 uM Nrf2 activator DMF incubated for 16 to 18 hrs by immunostaining relative to control
[13] = target: T1, Transcription regulator protein BACH1 (Homo sapiens); assay: Inhibition of Bach1 in normal human lung fibroblasts assessed as induction of HMOX protein expression by measuring HMOX positive cells level at 0.039 uM in presence of 0.03 uM Nrf2 activator DMF incubated for 16 to 18 hrs by immunostaining relative to control DMSO; design: scale not given: the % may be the effect or the level left
[14] = target: T1, Transcription regulator protein BACH1 (Homo sapiens); assay: Inhibition of Bach1 in normal human lung fibroblasts assessed as induction of HMOX protein expression at 0.039 uM in presence of 0.03 uM Nrf2 activator DMF incubated for 16 to 18 hrs by immunostaining relative to control
[15] = target: T1, Transcription regulator protein BACH1 (Homo sapiens); assay: Inhibition of Bach1 in normal human lung fibroblasts assessed as induction of HMOX protein expression at 0.039 uM in presence of 10 uM Nrf2 activator DMF incubated for 16 to 18 hrs by immunostaining relative to control
[16] = target: T1, Transcription regulator protein BACH1 (Homo sapiens); assay: Inhibition of Bach1 in normal human lung fibroblasts assessed as induction of HMOX protein expression by measuring HMOX positive cells level at 0.078 uM in presence of 0.1 uM Nrf2 activator DMF incubated for 16 to 18 hrs by immunostaining relative to control DMSO; design: scale not given: the % may be the effect or the level left
[17] = target: T1, Transcription regulator protein BACH1 (Homo sapiens); assay: Inhibition of Bach1 in normal human lung fibroblasts assessed as induction of HMOX protein expression by measuring HMOX positive cells level at 0.019 uM in presence of 3 uM Nrf2 activator DMF incubated for 16 to 18 hrs by immunostaining relative to control DMSO; design: scale not given: the % may be the effect or the level left
[18] = target: T1, Transcription regulator protein BACH1 (Homo sapiens); assay: Inhibition of Bach1 in normal human lung fibroblasts assessed as induction of HMOX protein expression at 0.156 uM incubated for 16 to 18 hrs by immunostaining relative to control
[19] = target: T1, Transcription regulator protein BACH1 (Homo sapiens); assay: Inhibition of Bach1 in normal human lung fibroblasts assessed as induction of HMOX protein expression by measuring HMOX positive cells level at 0.019 uM in presence of 30 uM Nrf2 activator DMF incubated for 16 to 18 hrs by immunostaining relative to control DMSO; design: scale not given: the % may be the effect or the level left

Row | fold change (FC) [1] | fold change (FC) [2] | Activity [3] | fold change (FC) [4] | Activity [5] | fold change (FC) [6] | Activity [7] | Activity [8] | Activity [9] | Activity [10] | fold change (FC) [11] | fold change (FC) [12] | Activity [13] | fold change (FC) [14] | fold change (FC) [15] | Activity [16] | Activity [17] | fold change (FC) [18] | Activity [19] | Compound
1 | 6.55 | 1.1 | 96.2% | 3.06 | 66.7% | 2.53 | 89% | 33.1% | 12.8% | 16.2% | 2.86 | 4.57 | 5.74% | 1.28 | 5.13 | 8.24% | 51.5% | 2.66 | 84.2% | CN(C)C(=O)CNC(=O)c1ccc2c(c1)nc(Nc1nc3ccc(C(F)(F)F)cc3s1)n2C
2 | – | – | – | – | – | – | – | – | – | – | – | – | – | – | – | – | – | 3.46 | – | CNC(=O)c1ccc2c(c1)nc(Nc1nc3ccc(OC(F)(F)F)cc3s1)n2C
3 | 7.5 | 1.31 | 91.3% | 5.17 | 97.7% | 3.83 | 99.2% | 88.2% | 18.7% | 61.5% | 3.55 | 7.69 | 11.9% | 1.81 | 5.64 | 44.6% | 80.2% | 6.46 | 84% | Cn1c(Nc2nc3ccc(C(F)(F)F)cc3s2)nc2cc(C(=O)NCCOCCO)ccc21
4 | 5.58 | 1.17 | 86.8% | 2.06 | 57.7% | 2.29 | 79.6% | 18.5% | 13% | 10.3% | 2.98 | 3.63 | 1.53% | 1.07 | 4.86 | 7.05% | 54.6% | 1.96 | 84.9% | COCCNC(=O)c1cnc2c(c1)nc(Nc1nc3ccc(OC(F)(F)F)cc3s1)n2C
